Among the data in patent publication US11247990B1, “Bicyclic fused pyridine compounds as inhibitors of TAM kinases” (ARRAY BIOPHARMA INC., priority 2017, dated 2022) are IC50 values, retold here.

Common to all, as to conditions: averaged IC50
The target of assay [1] is His-tagged recombinant human AXL cytoplasmic domain (Homo sapiens (Human), UniProt P30530). The experiment in a line: AXL Enzyme Assay (LanthaScreen Eu Kinase Binding, TR-FRET). In outline: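 Compound displacement measured by TR-FRET after 60 min at 22 °C, using Eu-based LanthaScreen binding technology. Ratiometric emission converted to percent of control, fitted to a 4-parameter logistic curve, with IC50 at 50 POC.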
(In TR-FRET formats the signal depends on donor and acceptor labels being close together.)

For assay [2], the target named is GST-tagged recombinant human TYRO3 kinase domain (Homo sapiens (Human), UniProt Q06418). The experiment in a line: TYRO3 Enzyme Assay (LanthaScreen Eu Kinase Binding, TR-FRET). In outline: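 LanthaScreen Eu binding (tracer displacement) format read by TR-FRET after 60 min at 22 °C. Emission ratio converted to percent of control; IC50 taken where a 4-parameter logistic fit crosses 50 POC.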

The target of assay [3] is His-tagged recombinant human MER cytoplasmic domain (Homo sapiens (Human), UniProt Q12866). The experiment in a line: MER Enzyme Assay (LanthaScreen Eu Kinase Binding, TR-FRET). In outline: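 Percent of control, derived from ratiometric TR-FRET emission, was fitted to a 4-parameter logistic curve and IC50 taken at 50 POC. Binding was read after 60 min at 22 °C using Eu-based LanthaScreen technology and recombinant His-tagged MER cytoplasmic domain.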

The structures appear in SMILES notation.

His-tagged recombinant human AXL cytoplasmic domain, sequence (P30530 473-894): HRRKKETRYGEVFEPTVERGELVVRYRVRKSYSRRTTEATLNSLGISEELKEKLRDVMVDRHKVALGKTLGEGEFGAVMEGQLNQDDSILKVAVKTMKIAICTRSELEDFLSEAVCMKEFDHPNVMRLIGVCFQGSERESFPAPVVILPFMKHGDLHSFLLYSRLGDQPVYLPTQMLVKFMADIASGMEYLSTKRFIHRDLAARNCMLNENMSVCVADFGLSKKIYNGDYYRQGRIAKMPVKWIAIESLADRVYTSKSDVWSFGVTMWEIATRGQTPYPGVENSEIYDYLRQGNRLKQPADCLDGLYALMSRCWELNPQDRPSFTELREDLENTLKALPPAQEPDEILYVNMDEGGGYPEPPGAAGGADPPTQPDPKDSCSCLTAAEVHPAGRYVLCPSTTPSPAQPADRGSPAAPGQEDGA
His-tagged recombinant human MER cytoplasmic domain, sequence (Q12866 527-999): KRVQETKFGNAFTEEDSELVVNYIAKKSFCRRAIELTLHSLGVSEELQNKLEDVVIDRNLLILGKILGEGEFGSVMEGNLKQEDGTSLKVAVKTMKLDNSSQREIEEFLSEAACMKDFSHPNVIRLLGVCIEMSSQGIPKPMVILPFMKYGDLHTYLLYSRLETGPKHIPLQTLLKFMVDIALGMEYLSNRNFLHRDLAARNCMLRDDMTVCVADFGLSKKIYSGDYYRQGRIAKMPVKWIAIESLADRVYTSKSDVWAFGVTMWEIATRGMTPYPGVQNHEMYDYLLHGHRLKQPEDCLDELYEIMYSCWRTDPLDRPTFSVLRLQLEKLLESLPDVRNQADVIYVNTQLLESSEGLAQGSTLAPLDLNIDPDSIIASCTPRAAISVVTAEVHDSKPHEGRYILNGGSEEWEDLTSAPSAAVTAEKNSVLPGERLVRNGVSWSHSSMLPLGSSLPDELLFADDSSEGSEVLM
GST-tagged recombinant human TYRO3 kinase domain, sequence (Q06418 518-790): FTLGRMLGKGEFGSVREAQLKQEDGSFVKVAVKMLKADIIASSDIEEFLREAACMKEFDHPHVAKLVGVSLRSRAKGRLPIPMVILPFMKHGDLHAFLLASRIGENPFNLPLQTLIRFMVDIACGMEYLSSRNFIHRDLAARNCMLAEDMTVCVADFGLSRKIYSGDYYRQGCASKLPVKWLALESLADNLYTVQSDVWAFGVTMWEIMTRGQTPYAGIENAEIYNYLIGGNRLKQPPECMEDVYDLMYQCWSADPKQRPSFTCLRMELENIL

In general, IC50 refers to the midpoint of a concentration-inhibition curve. Turning to `CCNc1cc2c(cn1)c(-c1cnn(C)c1)nn2[C@H]1CC[C@@H](Oc2c[nH]nc2C(F)(F)F)CC1` [Example 311, N-ethyl-3-(1-methyl-1H-pyrazol-4-yl)-1-((1s,4s)-4-((3-(trifluoromethyl)-1H-pyrazol-4-yl)oxy)cyclohexyl)-1H-pyrazolo[4,3-c]pyridin-6-amine], the 50% inhibitory concentration (IC50) in assay [1], in assay [2] and in assay [3] was < 10 nM each time.
As for `CNc1cc2c(cn1)c(-c1ccc(=O)n(C)c1)nn2[C@H]1CC[C@@H](Oc2cccnc2C(F)(F)F)CC1` [Example 217, 1-methyl-5-(6-(methylamino)-1-((1s,4s)-4-((2-(trifluoromethyl)pyridin-3-yl)oxy)cyclohexyl)-1H-pyrazolo[4,3-c]pyridin-3-yl)pyridin-2(1H)-one], the half-maximal inhibitory concentration (IC50) in assay [1], in assay [2] and in assay [3] was < 10 nM throughout.
For `CNc1cc2c(cn1)c(-c1ccc(CN3CCN(C)CC3)cc1)nn2[C@H]1CC[C@@H](Oc2cn(C)nc2C(F)(F)F)CC1` [Example 285, N-methyl-1-((1s,4s)-4-((1-methyl-3-(trifluoromethyl)-1H-pyrazol-4-yl)oxy)cyclohexyl)-3-(4-((4-methylpiperazin-1-yl)methyl)phenyl)-1H-pyrazolo[4,3-c]pyridin-6-amine], the IC50 in assay [1], in assay [2] and in assay [3] was < 10 nM in each case.
Take `CCNc1cc2c(cn1)c(C1CCCN(C)C1)nn2[C@H]1CC[C@@H](Oc2nccc(C(F)(F)F)c2F)CC1` (stereo partly drawn) [Example 324, N-ethyl-1-((1s,4s)-4-((3-fluoro-4-(trifluoromethyl)pyridin-2-yl)oxy)cyclohexyl)-3-(1-methylpiperidin-3-yl)-1H-pyrazolo[4,3-c]pyridin-6-amine]: the IC50 in assay [1] was < 10 nM; in assay [2] it was 10 to 100 nM; in assay [3] it was < 10 nM.
With `CCNc1cc2c(cn1)c(-c1cnn(C)c1)nn2[C@H]1CC[C@@H](Oc2cccc(F)c2F)CC1` [Example 374, 1-((1s,4s)-4-(2,3-difluorophenoxy)cyclohexyl)-N-ethyl-3-(1-methyl-1H-pyrazol-4-yl)-1H-pyrazolo[4,3-c]pyridin-6-amine], the IC50 was < 10 nM in assay [1], 10 to 100 nM in assay [2] and < 10 nM in assay [3].
`CNc1cc2c(cn1)c(-c1cnn(C(CO)CO)c1)nn2[C@H]1CC[C@@H](Oc2ccc(F)cc2)CC1` [Example 410, 2-(4-(1-((1s,4s)-4-(4-fluorophenoxy)cyclohexyl)-6-(methylamino)-1H-pyrazolo[4,3-c]pyridin-3-yl)-1H-pyrazol-1-yl)propane-1,3-diol]: the concentration for half-maximal inhibition (IC50) is < 10 nM in assay [1], 10 to 100 nM in assay [2] and < 10 nM in assay [3].
For the compound `CNc1cc2c(cn1)c(-c1cnn(C3CCN(C)CC3)c1)nn2[C@H]1CC[C@@H](Oc2nccnc2C)CC1` [Example 214, N-methyl-3-(1-(1-methylpiperidin-4-yl)-1H-pyrazol-4-yl)-1-((1s,4s)-4-((3-methylpyrazin-2-yl)oxy)cyclohexyl)-1H-pyrazolo[4,3-c]pyridin-6-amine], the concentration for half-maximal inhibition (IC50) was < 10 nM in assay [1], 10 to 100 nM in assay [2] and < 10 nM in assay [3].
With `CNc1cc2c(cn1)c(-c1cnn(CC(C)(C)O)c1)nn2[C@H]1CC[C@@H](Oc2ccccc2F)CC1` [Example 396, 1-(4-(1-((1s,4s)-4-(2-fluorophenoxy)cyclohexyl)-6-(methylamino)-1H-pyrazolo[4,3-c]pyridin-3-yl)-1H-pyrazol-1-yl)-2-methylpropan-2-ol], the values for the IC50 in assay [1], in assay [2] and in assay [3] were < 10 nM, 10 to 100 nM and < 10 nM, respectively.
Regarding `CCNc1cc2c(cn1)c(N1CC[C@@H](NC)C1)nn2[C@H]1CC[C@@H](Oc2nccc(C(F)(F)F)c2F)CC1` [Example 339, N-ethyl-1-((1s,4S)-4-((3-fluoro-4-(trifluoromethyl)pyridin-2-yl)oxy)cyclohexyl)-3-((R)-3-(methylamino)pyrrolidin-1-yl)-1H-pyrazolo[4,3-c]pyridin-6-amine], the concentration for half-maximal inhibition (IC50) in assay [1], in assay [2] and in assay [3] was < 10 nM in each case.
With `CCNc1cc2c(cn1)c(-c1cnn(C[C@@H](O)C(C)(C)O)c1)nn2[C@H]1CC[C@@H](Oc2cn(C)nc2C(F)(F)F)CC1` [Example 247, (R)-1-(4-(6-(ethylamino)-1-((1s,4S)-4-((1-methyl-3-(trifluoromethyl)-1H-pyrazol-4-yl)oxy)cyclohexyl)-1H-pyrazolo[4,3-c]pyridin-3-yl)-1H-pyrazol-1-yl)-3-methylbutane-2,3-diol], the IC50 in assay [1], in assay [2] and in assay [3] was < 10 nM each time.
Consider `CCNc1cc2c(cn1)c(-c1ccc3c(c1)CNC3=O)nn2[C@H]1CC[C@@H](Oc2cn(C)nc2C(F)(F)F)CC1` [Example 287], for which the half-maximal inhibitory concentration (IC50) in assay [1], in assay [2] and in assay [3] was < 10 nM in each case.
As for `CNc1cc2c(cn1)c(-c1cnn(C(C)(C)CO)c1)nn2[C@H]1CC[C@@H](Oc2ccccc2F)CC1` [Example 395, 2-(4-(1-((1s,4s)-4-(2-fluorophenoxy)cyclohexyl)-6-(methylamino)-1H-pyrazolo[4,3-c]pyridin-3-yl)-1H-pyrazol-1-yl)-2-methylpropan-1-ol], the IC50 in assay [1] is < 10 nM; in assay [2] it was 10 to 100 nM; in assay [3], < 10 nM.
For the compound `CCNc1cc2c(cn1)c(-c1cnn(C)c1)nn2[C@H]1CC[C@@H](Oc2cccc(C#N)c2C)CC1` [Example 382, 3-(((1s,4s)-4-(6-(ethylamino)-3-(1-methyl-1H-pyrazol-4-yl)-1H-pyrazolo[4,3-c]pyridin-1-yl)cyclohexyl)oxy)-2-methylbenzonitrile], the half-inhibitory concentration (IC50) in assay [1], in assay [2] and in assay [3] was < 10 nM each time.
In the case of `CCNc1cc2c(cn1)c(C1=CCN(C)CC1)nn2[C@H]1CC[C@@H](Oc2nccc(C(F)(F)F)c2F)CC1` [Example 255], the results for the 50% inhibitory concentration (IC50) in assay [1], in assay [2] and in assay [3] were < 10 nM, 10 to 100 nM and < 10 nM, respectively.
On to `CNc1cc2c(cn1)c(N1CCNCC1)nn2[C@H]1CC[C@@H](Oc2nccc(C(F)(F)F)c2F)CC1` [Example 495, 1-((1s,4s)-4-((3-fluoro-4-(trifluoromethyl)pyridin-2-yl)oxy)cyclohexyl)-N-methyl-3-(piperazin-1-yl)-1H-pyrazolo[4,3-c]pyridin-6-amine], for which the IC50 in assay [1], in assay [2] and in assay [3] was < 10 nM throughout.
Regarding `CCNc1cc2c(cn1)c([C@H]1CC[C@@H](N(C)C)CC1)nn2[C@H]1CC[C@@H](Oc2nccc(C(F)(F)F)c2F)CC1` [Example 351, 3-((1s,4S)-4-(dimethylamino)cyclohexyl)-N-ethyl-1-((1s,4S)-4-((3-fluoro-4-(trifluoromethyl)pyridin-2-yl)oxy)cyclohexyl)-1H-pyrazolo[4,3-c]pyridin-6-amine], the half-inhibitory concentration (IC50) in assay [1], in assay [2] and in assay [3] was < 10 nM each time.
For `CNc1cc2c(cn1)c(-c1ccc(CN3CCN(C)CC3)cc1)nn2[C@H]1CC[C@@H](Oc2cnn(C)c2C(F)(F)F)CC1` [Example 264, N-methyl-1-((1s,4s)-4-((1-methyl-5-(trifluoromethyl)-1H-pyrazol-4-yl)oxy)cyclohexyl)-3-(4-((4-methylpiperazin-1-yl)methyl)phenyl)-1H-pyrazolo[4,3-c]pyridin-6-amine], the figures for the half-maximal inhibitory concentration (IC50) in assay [1], in assay [2] and in assay [3] were < 10 nM, 10 to 100 nM and < 10 nM, respectively.
`CCNc1cc2c(cn1)c(-c1cnn(C[C@@H](O)CO)c1)nn2[C@H]1CC[C@@H](Oc2cccc(F)c2F)CC1` [Example 429, (R)-3-(4-(1-((1s,4S)-4-(2,3-difluorophenoxy)cyclohexyl)-6-(ethylamino)-1H-pyrazolo[4,3-c]pyridin-3-yl)-1H-pyrazol-1-yl)propane-1,2-diol]: the IC50 in assay [1], in assay [2] and in assay [3] was < 10 nM in each case.
Take `CNc1cc2c(cn1)c(-c1cnn(CC3CCOCC3)c1)nn2[C@H]1CC[C@@H](Oc2nccnc2C)CC1` [Example 215, N-methyl-1-((1s,4s)-4-((3-methylpyrazin-2-yl)oxy)cyclohexyl)-3-(1-((tetrahydro-2H-pyran-4-yl)methyl)-1H-pyrazol-4-yl)-1H-pyrazolo[4,3-c]pyridin-6-amine]: the IC50 in assay [1] was < 10 nM; in assay [2], 10 to 100 nM; in assay [3] it was < 10 nM.
On to `CCNc1cc2c(cn1)c(-c1ccc3c(c1)CN(C)S3(=O)=O)nn2[C@H]1CC[C@@H](Oc2cn(C)nc2C(F)(F)F)CC1` [Example 222, 5-(6-(ethylamino)-1-((1s,4s)-4-((1-methyl-3-(trifluoromethyl)-1H-pyrazol-4-yl)oxy)cyclohexyl)-1H-pyrazolo[4,3-c]pyridin-3-yl)-2-methyl-2,3-dihydrobenzo[d]isothiazole 1,1-dioxide], for which the IC50 in assay [1], in assay [2] and in assay [3] was < 10 nM each time.
Consider `CCNc1cc2c(cn1)c(-c1cnn(C[C@@H](O)C(C)(C)O)c1)nn2[C@H]1CC[C@@H](Oc2ccc(F)cc2F)CC1` [Example 447, (R)-1-(4-(1-((1s,4S)-4-(2,4-difluorophenoxy)cyclohexyl)-6-(ethylamino)-1H-pyrazolo[4,3-c]pyridin-3-yl)-1H-pyrazol-1-yl)-3-methylbutane-2,3-diol], for which the IC50 in assay [1] is < 10 nM; in assay [2], 10 to 100 nM; in assay [3] it was < 10 nM.
